Experimental data published in PMC3130825 (Journal of medicinal chemistry, 2010).
Several values for one entry are separate records, joined by “and”; a condition that tells them apart may be missing. Identical values can stand only once.

Tests used:
[1] = molecular target: hNET (Homo sapiens, UniProt P23975); test: [3H]norepinephrine uptake inhibition in HEK293 cells; assay type: cell-based; details: for potency relative to 2 as NE uptake inhibitor: better than 2
[2] = molecular target: α3β4*-nAChR (Homo sapiens, UniProt P30926+P32297); test: 86Rb+ efflux assay, SH-SY5Y cells; assay type: cell-based
α3β4*-nAChR, sequence (P32297 32-505): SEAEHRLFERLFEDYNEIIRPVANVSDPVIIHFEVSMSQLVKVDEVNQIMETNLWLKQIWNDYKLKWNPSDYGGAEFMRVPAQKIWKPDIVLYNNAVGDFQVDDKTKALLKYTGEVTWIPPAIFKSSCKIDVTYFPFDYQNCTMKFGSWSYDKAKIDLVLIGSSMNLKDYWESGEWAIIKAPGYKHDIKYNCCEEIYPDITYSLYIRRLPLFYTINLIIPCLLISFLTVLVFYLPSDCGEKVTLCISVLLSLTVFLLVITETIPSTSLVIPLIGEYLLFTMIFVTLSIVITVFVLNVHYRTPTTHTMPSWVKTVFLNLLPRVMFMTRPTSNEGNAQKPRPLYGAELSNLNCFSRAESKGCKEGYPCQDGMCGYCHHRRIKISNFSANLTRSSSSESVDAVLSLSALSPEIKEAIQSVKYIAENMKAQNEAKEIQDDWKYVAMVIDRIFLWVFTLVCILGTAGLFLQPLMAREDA
α3β4*-nAChR, sequence (P30926 22-498): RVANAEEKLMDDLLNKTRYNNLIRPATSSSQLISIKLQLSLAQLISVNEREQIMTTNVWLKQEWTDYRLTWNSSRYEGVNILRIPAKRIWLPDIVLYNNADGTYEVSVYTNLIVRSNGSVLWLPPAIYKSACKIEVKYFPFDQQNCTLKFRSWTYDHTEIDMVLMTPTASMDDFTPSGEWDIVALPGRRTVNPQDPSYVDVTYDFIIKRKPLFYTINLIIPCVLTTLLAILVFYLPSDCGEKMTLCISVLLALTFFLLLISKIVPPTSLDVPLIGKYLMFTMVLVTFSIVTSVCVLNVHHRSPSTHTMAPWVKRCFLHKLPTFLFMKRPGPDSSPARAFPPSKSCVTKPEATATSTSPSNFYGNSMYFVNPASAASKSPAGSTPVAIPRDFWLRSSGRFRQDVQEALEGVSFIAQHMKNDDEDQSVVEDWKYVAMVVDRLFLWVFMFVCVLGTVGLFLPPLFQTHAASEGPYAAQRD

[3] = tested on: nicotine-induced antinociception (tail-flick); test: Block of nicotine-induced antinociception, tail-flick test; assay type: in vivo, mice; details: for ED50: Mus musculus, read-out: AD50 Tail-flick; for potency relative to 2 in the tail-flick assay: mouse, in vivo
[4] = tested on: nicotine-induced antinociception (hot-plate); test: Block of nicotine-induced antinociception, hot-plate test; set-up: species or system mice; details: mouse, in vivo
[5] = tested on: nicotine-induced locomotor effect; test: Block of nicotine effect on locomotor activity; set-up: species or system mice; details: mouse, in vivo
[6] = tested on: nicotine-induced hypothermia; test: Block of nicotine-induced hypothermia; set-up: species or system mice; details: mouse, in vivo
[7] = molecular target: hSERT (Homo sapiens, UniProt P31645); assay type: cell-based
hSERT, sequence (P31645 whole entry): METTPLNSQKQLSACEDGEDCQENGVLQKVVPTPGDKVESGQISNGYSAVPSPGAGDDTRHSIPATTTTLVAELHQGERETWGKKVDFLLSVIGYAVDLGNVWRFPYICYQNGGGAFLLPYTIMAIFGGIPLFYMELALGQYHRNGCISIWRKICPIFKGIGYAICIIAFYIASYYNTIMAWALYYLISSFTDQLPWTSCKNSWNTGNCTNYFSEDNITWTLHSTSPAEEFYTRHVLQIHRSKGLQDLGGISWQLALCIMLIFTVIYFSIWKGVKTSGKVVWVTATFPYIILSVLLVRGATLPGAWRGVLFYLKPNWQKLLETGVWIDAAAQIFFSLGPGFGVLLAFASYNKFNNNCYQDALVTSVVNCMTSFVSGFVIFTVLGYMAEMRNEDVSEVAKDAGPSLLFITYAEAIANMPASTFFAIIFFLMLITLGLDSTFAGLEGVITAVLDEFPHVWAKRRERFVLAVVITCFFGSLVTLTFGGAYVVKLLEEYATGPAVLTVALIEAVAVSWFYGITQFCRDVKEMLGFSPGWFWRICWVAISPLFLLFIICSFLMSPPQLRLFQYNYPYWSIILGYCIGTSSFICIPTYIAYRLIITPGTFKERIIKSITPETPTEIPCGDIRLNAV

[8] = tested on: nicotine-induced CPP; test: Block of development of nicotine conditioned place preference; set-up: species or system mice; details: mouse, in vivo
[9] = tested on: CB-1 cannabinoid receptor; details: cited from earlier work
[10] = tested on: locomotor activity; details: cited from earlier work
[11] = cited from earlier work

hNET, sequence (P23975 whole entry): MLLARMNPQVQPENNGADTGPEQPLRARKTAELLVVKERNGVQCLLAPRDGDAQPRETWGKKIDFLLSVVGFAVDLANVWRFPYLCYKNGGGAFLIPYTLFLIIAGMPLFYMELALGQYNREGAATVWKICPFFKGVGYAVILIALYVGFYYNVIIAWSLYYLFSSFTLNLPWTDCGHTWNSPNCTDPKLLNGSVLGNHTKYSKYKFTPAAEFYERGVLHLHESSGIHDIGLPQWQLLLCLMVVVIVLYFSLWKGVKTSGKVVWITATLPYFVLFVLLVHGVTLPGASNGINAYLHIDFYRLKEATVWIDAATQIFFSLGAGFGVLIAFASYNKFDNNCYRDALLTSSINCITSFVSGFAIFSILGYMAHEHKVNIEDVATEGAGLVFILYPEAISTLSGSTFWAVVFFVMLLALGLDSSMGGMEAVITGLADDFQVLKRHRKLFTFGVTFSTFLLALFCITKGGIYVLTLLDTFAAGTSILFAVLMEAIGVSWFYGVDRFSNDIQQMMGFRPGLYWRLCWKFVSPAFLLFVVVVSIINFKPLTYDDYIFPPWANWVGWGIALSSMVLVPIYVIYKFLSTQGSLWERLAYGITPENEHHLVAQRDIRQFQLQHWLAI

Cc1cc([C@H]2C[C@@H]3CC[C@H]([C@H]2c2cc(-c4ccccc4)no2)N3C)ccc1Cl [Compound 4j]
preference for NE over DA uptake inhibition [1]: comparable
preference for functional inhibition of α3β4*- over α4β2-nAChR [2]: 10–13 fold
ED50 [3]: 2.5 mg/kg

Cc1ccc([C@H]2C[C@@H]3CC[C@H]([C@H]2C(=O)OC(C)C)N3C)cc1 [Compound 4a, 3β-(4-Methylphenyl)tropane-2β-carboxylic acid isopropyl ester]
ED50 [3]: 0.015 mg/kg

COC(=O)[C@H]1[C@@H](c2ccc(Cl)c(C)c2)C[C@@H]2CC[C@H]1N2C [Compound 4g, 3β-(4-chlorophenyl-3-methyl)tropane-2β-carboxylic acid methyl ester]
potency relative to 2 as NE uptake inhibitor [1]: ~ 2000 fold
ED50 [3]: 0.21 mg/kg
potency relative to 2 in the tail-flick assay [3]: 6 fold
potency relative to 2 in the hot-plate assay [4]: 40 fold
potency relative to 2 in the locomotor test [5]: 44 fold
potency relative to 2 in the hypothermia (body temperature) test [6]: 65 fold

CCc1cc([C@H]2[C@@H](c3ccc(C)cc3)C[C@@H]3CC[C@H]2N3C)on1 [Compound 4c, 3β-(4-methylphenyl)-2β-(3′-ethylisoxazol-5′-yl)tropane]
potency relative to 2 as NE uptake inhibitor [1]: ~ 170 fold
potency relative to 2 as 5HT uptake inhibitor [7]: no less than 5 fold
ED50 [3]: 0.008 mg/kg
potency relative to 2 in the tail-flick assay [3]: 150 fold
potency relative to 2 in the hot-plate assay [4]: 9 fold
potency relative to 2 in the hypothermia (body temperature) test [6]: marginally more potent

Cc1ccc([C@H]2C[C@@H]3CC[C@H]([C@H]2c2cc(-c4ccc(Cl)cc4)no2)N3C)cc1 [Compound 4d]
ED50 [3]: > 20 mg/kg
potency relative to 2 in the CPP assay [8]: 27 fold
modulation of the CB-1 cannabinoid receptor [9]: positive allosteric modulator
locomotor activity in rats [10]: did not show locomotor activity
brain levels in in vivo binding studies [11]: appreciable brain levels were achieved

Cc1cc([C@H]2[C@@H](c3ccc(Cl)c(C)c3)C[C@@H]3CC[C@H]2N3C)on1 [Compound 4i, 3β-(4-chloro-3-methylphenyl)-2β-(3′-methylisoxazol-5′-yl)tropane]
preference for functional inhibition of α3β4*- over α4β2-nAChR [2]: 11 fold and 10–13 fold
ED50 [3]: 0.009 mg/kg

COc1ccc(-c2cc([C@H]3[C@@H](c4ccc(Cl)cc4)C[C@@H]4CC[C@H]3N4C)on2)cc1 [Compound 4e]
preference for functional inhibition of α3β4*- over α4β4-nAChR [2]: > 56 fold
ED50 [3]: 0.018 mg/kg

COC(=O)[C@@H]1[C@H]2CC[C@@H](C[C@H]1c1ccc(Cl)c(C)c1)N2C [Compound 4k, 3α-(4-Chloro-3-methylphenyl)tropane-2β-carboxylic acid Methyl Ester]
ED50 [3]: 0.026 mg/kg

CC(NC(C)(C)C)C(=O)c1cccc(Cl)c1 (centres unmarked) [Compound 2, bupropion, reference compound]
ED50 [3]: 1.2 mg/kg

COC(=O)[C@H]1[C@@H](c2ccc(Cl)c(C)c2)C[C@@H]2CC[C@H]1N2 [Compound 4h, 3β-(4-chloro-3-methylphenyl)nortropane-2β-carboxylic acid methyl ester]
ED50 [3]: 0.003 mg/kg

Cc1ccc([C@H]2C[C@@H]3CC[C@H]([C@H]2C(=O)OC2CCC2)N3C)cc1 [Compound 4b]
ED50 [3]: 0.28 mg/kg
